# System: Bacillus subtilis
# Type: cell-based
Compound,A: count of viable Bacillus colonies at 10 dilution,B: count of viable Bacillus colonies at 100 dilution,C: count of viable Bacillus colonies at 1000 dilution,D: count of viable Bacillus colonies at 10000 dilution,Log10 RED [Log10]
O=[O+][O-] [ozone],TNTCT,NTC,–,–,–
OO [hydrogen peroxide],TNTCT,NTC,210,12,0

# From patent US8636951B2, “Bio-terrorism counteraction using ozone and hydrogen peroxide” (priority 2010, dated 2014)
